Earlier results in PubChem BioAssay AID1259409 (Chemical Carcinogenesis Research Information System (CCRIS), 2018).

Tested on: rodent chemically induced tumor inhibition, incidence and multiplicity
Test: CCRIS tumor inhibitor studies

## Cn1cnc2[nH]c(=O)[nH]c(=O)c21
Carcinogen: URETHANE, 51-79-6, Dose [Inhibitor]: 0.05 UMOL/G BW GIVEN AT 6 HR INTERVALS DURING THE PERIOD OF 0 TO 36 HR AFTER CARCINOGEN TREATMENT FOLLOWED BY 5 MO OBSER, Route [Inhibitor]: INTRAPERITONEAL, Species: MOUSE, Strain/Sex: ICR/FEMALE, Target Tissue: Type of Lesion: LUNG: PAPILLARY ADENOMA, Dose [Carcinogen]: 0.1 MG/G BW ONCE, Promoter: NONE USED
  tumour outcome (control, treated, inhibition, significance): 31/59 (53%), 18/48 (38%), 28%, p 0.12
Carcinogen: URETHANE, 51-79-6, Dose [Inhibitor]: 0.25 UMOL/G BW 1/D DURING THE PERIOD OF 5 TO 9 D AFTER CARCINOGEN TREATMENT FOLLOWED BY OBSERVATION PERIOD UNTIL END OF, Route [Inhibitor]: INTRAPERITONEAL, Species: MOUSE, Strain/Sex: ICR/FEMALE, Target Tissue: Type of Lesion: LUNG: PAPILLARY ADENOMA, Dose [Carcinogen]: 1 MG/G BW ONCE, Promoter: NONE USED
  tumour outcome (control, treated, inhibition, significance): 49/53 (93%), 43/62 (69%), 26%, p<0.01

## NCCCN
Carcinogen: AZOXYMETHANE, 25843-45-2, Dose [Inhibitor]: 0, 2.5 G/L IN DRINKING WATER AD LIBITUM FOR DURATION OF STUDY (STUDY DURATION: 40 WK), Route [Inhibitor]: ORAL, Species: RAT, Strain/Sex: WISTAR/MALE, Target Tissue: Type of Lesion: INTESTINE: TUMOR, Dose [Carcinogen]: 7.4 MG/KG BW IN 0.9% SALINE 1/WK FOR 10 WK, Promoter: BOMBESIN, 31362-50-2
  tumour outcome (control, treated, inhibition, significance): 20/20 (100%), 11/20 (55%), 45%, p<0.01
Carcinogen: AZOXYMETHANE, 25843-45-2, Dose [Inhibitor]: 0, 2.5 G/L IN DRINKING WATER FOR DURATION OF STUDY (STUDY DURATION: 45 WK), Route [Inhibitor]: ORAL, Species: RAT, Strain/Sex: WISTAR/MALE, Target Tissue: Type of Lesion: COLON: TUMOR, Dose [Carcinogen]: 7.4 MG/KG BW IN 0.9% SALINE 1/WK FOR 10 WK, Promoter: VASOACTIVE INTESTINAL PEPTIDE, 37221-79-7
  tumour outcome (control, treated, inhibition, significance): 14/18 (78%), 6/18 (33%), 58%, p<0.02
Carcinogen: N-BUTYL-N-(4-HYDROXYBUTYL)NITROSAMINE [3817-11-6], Dose [Inhibitor]: 2 G/L IN DRINKING WATER FOR 32 WK BEGINNING 2 D POST LAST CARCINOGEN DOSE (STUDY DURATION: 36 WK), Route [Inhibitor]: ORAL, Species: RAT, Strain/Sex: F344/MALE, Target Tissue: Type of Lesion: URINARY BLADDER: CARCINOMA, Dose [Carcinogen]: 0.05% IN DRINKING WATER FOR 4 WK (STUDY DURATION: 36 WK), Promoter: NONE
  tumour outcome (control, treated, inhibition, significance): 5/17 (29%), 3/17 (18%), 39%, not significant
Carcinogen: N-BUTYL-N-(4-HYDROXYBUTYL)NITROSAMINE [3817-11-6], Dose [Inhibitor]: 2 G/L IN DRINKING WATER FOR 32 WK BEGINNING 2 D POST LAST CARCINOGEN DOSE (STUDY DURATION: 36 WK), Route [Inhibitor]: ORAL, Species: RAT, Strain/Sex: F344/MALE, Target Tissue: Type of Lesion: URINARY BLADDER: CARCINOMA, Dose [Carcinogen]: 0.05% IN DRINKING WATER FOR 4 WK (STUDY DURATION: 36 WK), Promoter: SODIUM L-ASCORBATE [134-03-2]
  tumour outcome (control, treated, inhibition, significance): 15/15 (100%), 18/18 (100%), 0%, not significant
Carcinogen: N-BUTYL-N-(4-HYDROXYBUTYL)NITROSAMINE [3817-11-6], Dose [Inhibitor]: 2 G/L IN DRINKING WATER FOR 32 WK BEGINNING 2 D POST LAST CARCINOGEN DOSE (STUDY DURATION: 36 WK), Route [Inhibitor]: ORAL, Species: RAT, Strain/Sex: F344/MALE, Target Tissue: Type of Lesion: URINARY BLADDER: PAPILLOMA, Dose [Carcinogen]: 0.05% IN DRINKING WATER FOR 4 WK (STUDY DURATION: 36 WK), Promoter: SODIUM L-ASCORBATE [134-03-2]
  tumour outcome (control, treated, inhibition, significance): 15/15 (100%), 18/18 (100%), 0%, not significant
Carcinogen: N-METHYL-N'-NITRO-N-NITROSOGUANIDINE, 70-25-7, Dose [Inhibitor]: 0, 2.5 G/L IN DRINKING WATER BEGINNING 1 WK POST CARCINOGEN TREATMENT AND CONTINUING FOR DURATION OF STUDY (STUDY DURATI, Route [Inhibitor]: ORAL, Species: RAT, Strain/Sex: WISTAR/MALE, Target Tissue: Type of Lesion: STOMACH: ADENOCARCINOMA, Dose [Carcinogen]: 50 UG/ML IN DRINKING WATER FOR 25 WK, Promoter: BOMBESIN, 31362-50-2
  tumour outcome (control, treated, inhibition, significance): 14/20 (70%), 6/20 (30%), 57%, p<0.05
Carcinogen: N-METHYL-N'-NITRO-N-NITROSOGUANIDINE, 70-25-7, Dose [Inhibitor]: 0, 2.5 G/L IN DRINKING WATER FOR 26 WK BEGINNING 1 WK POST CARCINOGEN TREATMENT (STUDY DURATION: 52 WK), Route [Inhibitor]: ORAL, Species: RAT, Strain/Sex: WISTAR/MALE, Target Tissue: Type of Lesion: GLANDULAR STOMACH: ADENOCARCINOMA, Dose [Carcinogen]: 25 UG/ML IN DRINKING WATER FOR 25 WK, Promoter: SODIUM CHLORIDE, 7647-14-5
  tumour outcome (control, treated, inhibition, significance): 14/19 (74%), 6/20 (30%), 59%, p<0.02
Carcinogen: N-METHYL-N'-NITRO-N-NITROSOGUANIDINE, 70-25-7, Dose [Inhibitor]: 0, 25 G/L IN DRINKING WATER FOR 26 WK BEGINNING 1/WK POST CARCINOGEN TREATMENT (STUDY DURATION: 52 WK), Route [Inhibitor]: ORAL, Species: RAT, Strain/Sex: WISTAR/MALE, Target Tissue: Type of Lesion: STOMACH: ADENOCARCINOMA, Dose [Carcinogen]: 25 UG/ML IN DRINKING WATER FOR 25 WK, Promoter: TYROSINE METHYL ESTER, 1080-06-4
  tumour outcome (control, treated, inhibition, significance): 15/18 (83%), 8/18 (44%), 47%, p<0.05
